Assays:
[1] = tested on: HCT116 cells; assay: Growth suppression in the presence of antioxidant NAC; format: cell-based; conditions: HCT116, 5 mM NAC pre-treatment 16h; 2.5, 5 and 10 µM; 24h after treatment
Description: Cells were grown in 96-well plates at a density of 3000 cells per well with or without doxycycline and treated with compounds. After 48 hours of incubation the proliferative cell reagent resazurin (Thermo Fisher Scientific) was added to the cells. The degree of resazurin reduction, which reflects cell viability, was measured by microplate reader by monitoring the absorbance at 570 nm and 600 nm, according to the manufacturer.
To find out whether oxidative stress plays a role in cancer cell death induced by 1d*HCl, we tested the extent of growth suppression by the treatment in the presence of antioxidant N-acetyl cysteine (NAC), which neutralize ROS. We pre-treated HCT116 cells with 5 mM NAC. After 16h of incubation with NAC, we treated HCT116 cells with 2.5, 5, and 10 µM of 1d*HCl. We measured the growth suppression 24h after treatment. […] Thus, we conclude that the mechanism of cancer cell growth suppression is dependent on the induction of oxidative stress by the compounds of the present invention.

[2] = molecular target: T1, recombinant purified TrxRl (Homo sapiens, UniProt Q16881); assay: TrxR1 enzymatic activity measurement in vitro; format: biochemical; conditions: recombinant purified enzyme in vitro
T1 construct: made in house; host or cells: Release Factor 1-depleted E. coli strain
T1 sequence (Q16881 151-649): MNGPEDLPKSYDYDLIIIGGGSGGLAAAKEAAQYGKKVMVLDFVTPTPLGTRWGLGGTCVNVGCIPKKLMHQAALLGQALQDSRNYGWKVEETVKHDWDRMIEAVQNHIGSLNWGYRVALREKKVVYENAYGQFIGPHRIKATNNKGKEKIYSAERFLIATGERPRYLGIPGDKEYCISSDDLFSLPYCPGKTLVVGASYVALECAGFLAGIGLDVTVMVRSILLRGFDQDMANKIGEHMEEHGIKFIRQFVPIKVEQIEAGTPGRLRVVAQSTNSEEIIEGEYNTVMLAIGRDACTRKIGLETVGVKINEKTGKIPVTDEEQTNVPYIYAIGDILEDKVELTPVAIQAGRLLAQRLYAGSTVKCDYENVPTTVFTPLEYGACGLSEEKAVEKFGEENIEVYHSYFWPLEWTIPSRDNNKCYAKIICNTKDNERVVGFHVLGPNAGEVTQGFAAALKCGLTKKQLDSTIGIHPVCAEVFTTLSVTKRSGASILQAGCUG
Description: TrxRl enzyme was recombinantly produced with high Sec contents in a specific Release Factor 1-depleted E. coli strain and purified as previously described (Arnér ESJ, Holmgren A, in Current Protocols in Toxicology, Maines M, Costa L, Reed D, Sassa S, Eds. (John Wiley & Sons, Inc., New York, 2000), pp. 7.4.1-7.4.14). TrxRl and GSR (Sigma) recombinant enzyme assays were performed in a reaction buffer containing 50 mM Tris pH 7.5 with 2 mM EDTA and 0.1 mg/mL bovine serum albumin as described previously (Arnér ESJ, Holmgren A, in Current Protocols in Toxicology, Maines M, Costa L, Reed D, Sassa S, Eds. (John Wiley & Sons, Inc., New York, 2000), pp. 7.4.1-7.4.14). Briefly, assays were performed in triplicate using 96-well plates, with activity inferred from absorbance changes using a Spectra Max plate reader. Results of recombinant enzyme assays were normalized to DMSO and to no enzyme controls.
We used recombinant purified TrxRl and GR in an in vitro assay as described in methods section.

[3] = molecular target: GR (Homo sapiens, UniProt P00390); assay: GR activity in cells; format: cell-based
GR, sequence (P00390 44-522): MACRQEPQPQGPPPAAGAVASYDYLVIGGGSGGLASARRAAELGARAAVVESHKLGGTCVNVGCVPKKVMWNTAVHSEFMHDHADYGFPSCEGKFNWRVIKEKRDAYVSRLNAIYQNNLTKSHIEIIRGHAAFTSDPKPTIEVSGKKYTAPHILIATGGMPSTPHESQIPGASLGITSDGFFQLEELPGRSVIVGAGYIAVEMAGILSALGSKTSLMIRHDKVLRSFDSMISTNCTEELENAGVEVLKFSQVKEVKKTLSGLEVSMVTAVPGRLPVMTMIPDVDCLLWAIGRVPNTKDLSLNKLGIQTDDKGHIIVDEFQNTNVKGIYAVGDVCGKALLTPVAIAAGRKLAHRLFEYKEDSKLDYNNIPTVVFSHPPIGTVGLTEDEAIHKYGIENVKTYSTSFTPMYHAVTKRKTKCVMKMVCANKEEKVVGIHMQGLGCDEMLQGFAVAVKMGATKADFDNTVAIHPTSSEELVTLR
Text: Having established that 1d*HCl inhibits TrxR1activity in vitro, it was important to confirm that 1d*HCl targets TrxRl in living cells. Therefore, we tested whether 1d*HCl is able to inhibit the enzymatic activity of TrxRl in MCF7 breast cancer cells. […] In contrast, GR activity was not inhibited by 1d*HCl in cells, which is in line with the in vitro results. Thus, we conclude that 1d*HCl selectively targets TrxRl in cancer cells and inhibits its activity, leading to the induction of ROS and oxidative stress.

[4] = tested on: γH2AX; assay: DNA damage detection by Western blot (phosphorylated histone H2AX); format: cell-based; conditions: HCT116 and MCF7
Description: The extraction of total cell lysates and western blot were performed according to standard procedure. The antibodies used for immunoblotting were: p53 (sc-126, Santa Cruz Biotechnology), γH2AX (#07-164, Millipore), TrxRl 19A1 (AbFrontier). Anti-β-actin monoclonal antibody (Millipore) was used as loading control. The horseradish peroxidase-coupled secondary antibodies (Jackson ImmunoResearch) and SuperSignal™ West Dura Extended Duration Substrate detection system (Thermo Fischer Scientific), and images were visualized using ChemiDoc Imaging System (Bio-Rad).
The majority of chemotherapeutic drugs used currently in the clinic, are DNA damaging drugs. Induction of DNA damage is a very efficient way of elimination of cancer cells. Unfortunately, these drugs induce DNA damage also in normal cells, leading to severe side effects. We addressed the question whether 1d*HCl induces DNA damage. We tested this by detection of a hallmark of DNA damage, induction of phosphorylated histone H2AX, so called γH2AX. We used anti-yH2AX antibody to detect it in cells treated with 1d*HCl.

[5] = tested on: cancer cells; assay: Cell growth assay in combination with BSO; format: cell-based
Description: Further, we tested whether the inhibition of GR by BSO will have additive effect with 1d*HCl. If 1d*HCl mechanism of action includes inhibition of GR, BSO will not have an additive effect. We used a range of concentrations of 1d*HCl and BSO in cell growth assays.
Next, we tested whether the prevention of oxidative stress by NAC will affect the growth suppression by the combination of 1d*HCl and BSO. In the presence of NAC we observed the additive effect of 1d*HCl with 50 µM BSO only at twice higher dose of 1d*HCl - 10 µM.

[6] = tested on: B16 melanoma; assay: B16 melanoma mouse model; format: in vivo, C57BL/6 mice; conditions: 10mg/kg i.p. every other day for 9 days, day 8 and day 9, compared to vehicle-treated mice
Description: Animal experiments were approved by the regional ethics committee for animal research (N391/11 and N26/11), appointed and under the control of the Swedish Board of Agriculture and the Swedish Court. The animal experiments were in accordance with national regulations (SFS 1988:534, SFS 1988:539 and SFS 1988:541).
For the B16 melanoma mouse model, 6-weeks-old female C57BL/6 mice were injected subcutaneously with 1x10^6 B16 cells. When the tumors reached 80-120 mm^3, 10 mg/kg of 1d*HCl were administered intraperitoneally every other day for 9 days (days 1, 3, 5, 7, 9). Tumor volume was measured by caliper three times per week, and the volume was calculated based on the formula (in ml): L/10*W/10*W/10*0.44 (L=length, W=width of tumor). Mice were sacrificed when tumors reached 2 cm^3 or upon bleeding.
We tested the anti-tumor activity of 1d*HCl using allogenic model of B16 mice. We inoculated mice with B16 melanoma cells. When the tumors reached 100 mm^3, we treated them with i.p. injection of 1d*HCl, 10mg/kg every other day for 9 days. […] The differences in tumor volume between untreated control mice and animals treated with 1d*HCl are all statistically significant. Thus, 1d*HCl has in vivo anti-tumor activity in this animal tumor model.

Cl.N#Cc1c(-c2cccnc2)[n+]([O-])c2cc(F)c(N3CCOCC3)cc2[n+]1[O-] [1d*HCl, 6-Fluoro-7-(morpholin-4-yl)-3-(pyridin-3-yl)quinoxaline-2-carbonitrile-1,4-dioxide hydrochloride]
growth suppression in the presence of NAC [1]: almost completely abolished the growth suppression | enzymatic activity of TrxRl [2]: efficiently inhibited the enzymatic activity of TrxRl in a dose- and time-dependent manner | GR activity in cells [3]: not inhibited | induction of γH2AX [4]: negligible | effect of combination with BSO on cell growth ([5]; 5 µM 1d*HCl with 50 µM BSO): have an additive effect and completely eradicated cancer cells | dose of 1d*HCl at which additive effect with 50 µM BSO is observed ([5]; in the presence of NAC): 10 µM | tumor volume [6]: lower volume of tumors

From patent publication EP4201929A1, “QUINOXALINE THIOREDOXIN REDUCTASE INHIBITORS” (geneXplain GmbH, priority 2021, dated 2023)
